For one compound, Ka and ΔTm results are on record in publication PMC11258614 (2024).

Where a SMILES comes first, the peptide text is derived from it.

In test [1] the test system is human c-Myc promoter G4 (DNA, G4) TGAGGGTGGGTAGGGTGGGTAA
Briefly: fluorescence titration of peptide with G4. The note with it: 30 mM sodium cacodylate pH 7.4, 0.5 mM EDTA, 25 °C, printed Ka in μM, Ka or Kd ambiguous.

Test [2] has the same test system. Kind of test: UV melting at 295 nm. To be noted: 30 mM sodium cacodylate pH 7.4, 0.5 mM EDTA, 4 μM DNA, DNA:peptide 1:50, derived from two Tm.

A word on the ΔTm: it is the shift of the melting midpoint relative to a reference.

On to `CC(C)C[C@H](NC(=O)[C@@H](N)CC(N)=O)C(=O)N[C@@H](CCC(=O)O)C(=O)N[C@@H](CCCCN)C(=O)N[C@@H](CCCCN)C(=O)N[C@@H](CCCCN)C(=O)N1CCC[C@H]1C(=O)NCC(=O)O` (H-NLEKKKPG-OH), for which the Ka in test [1] (100 mM K+) was 0.1277 ± 0.073 µM; in test [1] (100 mM Na+), 0.1369 ± 0.008 µM. The figures for the ΔTm in test [2] (100 mM K+) and in test [2] (100 mM Na+) were 0.9 °C and 3.7 °C, respectively.
